Test results published in patent US20240082293A1, “A VAGINAL CONTRACEPTIVE COMPOSITION FOR REINFORCEMENT OF MUCUS BARRIER PROPERTIES” (CIRQLE BIOMEDICAL CONTRACEPTION ApS, priority 2019, published 2024).

Tested on: human sperm penetration through human ovulatory cervical mucus
Test: Sperm penetration assay through ovulatory cervical mucus in capillaries (phase contrast microscopy)
Assay type: cell-based
Conditions: for sperm penetration through mucus treated with poly-L-lysine (barrier reinforcing effect): PLL 5 mg/mL in 32.5 mM lactic acid solution, 30 minutes after exposure to undiluted sperm
Description: Semen samples of patients and volunteers collected at the Andrology, Sexual Medicine, Transmedicine, clinic (ANOVA, Karolinska University Hospital, Sweden) were run through standard semen kinematic analyses and sperm penetration assays no later than 3 h after collection. Data were obtained for the collection time, abstinence time, and semen volume. Semen was gently liquefied for 30 min on a rocker in an incubation chamber heated up to 37° C., after complete collection of ejaculates by masturbation. The viscosity of semen was determined visually and by pipetting. Semen was microscopically analysed by pipetting 6 μl of specimen in pre-warmed Leja® (Netherland) counting chamber slides (20 micron). Subsequently, specimens were assessed via clinical ECLIPSE 50i microscope (Nikon Instruments, Japan) equipped with stage heater MS 100 (37° C., Linkam Scientific Instruments, UK), 10× objective (Ph1) and 0.5× charge coupled device camera UI-1540LE-M-HQ (IDS Imaging Development Systems GmbH, Germany) with total magnification of 5×. The system was connected to the Computer Aided Semen Analysis software QualiSperm (v3.0.9.486, AKYmed, Switzerland). Beside the sperm concentration [106/m1], the progressive motility [%], motility [%], immotility [%], velocity [μm/s], sperm size [μm2], and number of cells were measured. Semen samples meeting the following criteria were included in this study: volume of >1.5 ml, concentration of >15×10^6/mland >40% progressive motility. These criteria reflect reference limits of the World Health Organization (WHO) (“WHO Laboratory Manual for the Examination and Processing of Human Semen” 2010) and values for normal spermatozoa as stated in Bjorndahl (Lars Bjorndahl. 2011. “What Is Normal Semen Quality? On the Use and Abuse of Reference Limits for the Interpretation of Semen Analysis Results.” Human Fertility 14 (3): 179-86). In each run, ten values were generated by assessing five fields in two chambers.
Ovulatory cervical mucus (CVM) (the CVM with highest penetrability) was collected from healthy donors at the Karolinska University Hospital. […]

Substance	sperm penetration through mucus treated with poly-L-lysine (barrier reinforcing effect)	point at which no sperm is seen (distance into the mucus) (sperm numbers assessed 30 minutes after exposure to undiluted sperm, polymer in lactic acid solution)
poly-L-lysine [66 KDa PLL]	able to prevent the entrance of the sperm	around 3 cm
poly-L-lysine [low molecular weight PLL]	did not have any effect	
